ChEMBL document CHEMBL3734705, “Synthesis and in vitro cytotoxicity of novel C-12 substituted-14-deoxy-andrographolide derivatives as potent anti-cancer agents” (2015)

Key:
[1] = Cytotoxicity against human HOP92 cells assessed as growth level at 10 uM after 48 hrs by SRB assay; assay type: functional, HOP-92
NCI-H23 [2] = test: Cytotoxicity against human NCI-H23 cells assessed as growth level at 10 uM after 48 hrs by SRB assay; assay type: functional
NCI-H322M = test: Cytotoxicity against human NCI-H322M cells assessed as growth level at 10 uM after 48 hrs by SRB assay; assay type: functional
[3] = Cytotoxicity against human HCC2998 cells assessed as growth level at 10 uM after 48 hrs by SRB assay; assay type: functional, HCC 2998
[4] = Cytotoxicity against human HCT15 cells assessed as growth level at 10 uM after 48 hrs by SRB assay; assay type: functional, HCT-15
[5] = Cytotoxicity against human SF295 cells assessed as growth level at 10 uM after 48 hrs by SRB assay; assay type: functional, SF-295
U-251 = test: Cytotoxicity against human U251 cells assessed as growth level at 10 uM after 48 hrs by SRB assay; assay type: functional
Malme-3M = test: Cytotoxicity against human MALME-3M cells assessed as growth level at 10 uM after 48 hrs by SRB assay; assay type: functional
SK-MEL-5 = test: Cytotoxicity against human SK-MEL-5 cells assessed as growth level at 10 uM after 48 hrs by SRB assay; assay type: functional
[6] = Cytotoxicity against human UACC62 cells assessed as growth level at 10 uM after 48 hrs by SRB assay; assay type: functional, UACC-62
[7] = Cytotoxicity against human OVCAR4 cells assessed as growth level at 10 uM after 48 hrs by SRB assay; assay type: functional, OVCAR-4
[8] = Cytotoxicity against human OVCAR5 cells assessed as growth level at 10 uM after 48 hrs by SRB assay; assay type: functional, OVCAR-5
[9] = Cytotoxicity against human NCI-ADR-RES cells assessed as growth level at 10 uM after 48 hrs by SRB assay; assay type: functional
[10] = Cytotoxicity against human RXF393 cells assessed as growth level at 10 uM after 48 hrs by SRB assay; assay type: functional, RXF 393
[11] = Cytotoxicity against human UO31 cells assessed as growth level at 10 uM after 48 hrs by SRB assay; assay type: functional, UO-31
[12] = Cytotoxicity against human PC3 cells assessed as growth level at 10 uM after 48 hrs by SRB assay; assay type: functional, PC-3
CCRF-CEM = test: Cytotoxicity against human CCRF-CEM cells assessed as growth inhibition at 10 uM after 48 hrs by SRB assay; assay type: functional; conditions: read-out: GI
[13] = Cytotoxicity against human MOLT4 cells assessed as growth inhibition at 10 uM after 48 hrs by SRB assay; assay type: functional; conditions: MOLT-4, 48 h, read-out: GI
[14] = Cytotoxicity against human RPMI8226 cells assessed as growth inhibition at 10 uM after 48 hrs by SRB assay; assay type: functional; conditions: RPMI-8226, 48 h, read-out: GI
SR = test: Cytotoxicity against human SR cells assessed as growth inhibition at 10 uM after 48 hrs by SRB assay; assay type: functional; conditions: read-out: GI
NCI-H23 [15] = test: Cytotoxicity against human NCI-H23 cells assessed as growth inhibition at 10 uM after 48 hrs by SRB assay; assay type: functional; conditions: NCI-H23, 48 h, read-out: GI
[16] = Cytotoxicity against human HCC2998 cells assessed as growth inhibition at 10 uM after 48 hrs by SRB assay; assay type: functional; conditions: HCC 2998, 48 h, read-out: GI
[17] = Cytotoxicity against human SW620 cells assessed as growth inhibition at 10 uM after 48 hrs by SRB assay; assay type: functional; conditions: SW-620, 48 h, read-out: GI
[18] = Cytotoxicity against human SF268 cells assessed as growth inhibition at 10 uM after 48 hrs by SRB assay; assay type: functional; conditions: SF-268, 48 h, read-out: GI
[19] = Cytotoxicity against human UACC257 cells assessed as growth inhibition at 10 uM after 48 hrs by SRB assay; assay type: functional; conditions: UACC-257, 48 h, read-out: GI
[20] = Cytotoxicity against human OVCAR3 cells assessed as growth inhibition at 10 uM after 48 hrs by SRB assay; assay type: functional; conditions: OVCAR-3, 48 h, read-out: GI
ACHN = test: Cytotoxicity against human ACHN cells assessed as growth inhibition at 10 uM after 48 hrs by SRB assay; assay type: functional; conditions: read-out: GI
SN12C = test: Cytotoxicity against human SN12C cells assessed as growth inhibition at 10 uM after 48 hrs by SRB assay; assay type: functional; conditions: read-out: GI
K562 = test: Cytotoxicity against human K562 cells assessed as growth level at 10 uM after 48 hrs by SRB assay; assay type: functional

Row | Structure (SMILES) | Activity [1] [%] | Activity (NCI-H23 [2]) [%] | Activity (NCI-H322M) [%] | Activity [3] [%] | Activity [4] [%] | Activity [5] [%] | Activity (U-251) [%] | Activity (Malme-3M) [%] | Activity [6] [%] | Activity [7] [%] | Activity [8] [%] | Activity [9] [%] | Activity [10] [%] | Activity [11] [%] | Activity [12] [%] | inhibition of growth at 10 µM (CCRF-CEM) [%] | inhibition of growth at 10 µM [13] [%] | inhibition of growth at 10 µM [14] [%] | inhibition of growth at 10 µM (SR) [%] | inhibition of growth at 10 µM (NCI-H23 [15]) [%] | further results
1 | C=C1CC[C@@H]2[C@](C)(COC(C)=O)[C@H](OC(C)=O)CC[C@@]2(C)[C@@H]1CC(NC1CCCC1)C1=CCOC1=O (stereo partly drawn) | 25.23 | 62.53 | 101.16 | 90.35 | 67.03 | 90.39 | 75.39 | 84.55 | 65.59 | 58.35 | 105.62 | 68.47 | 78.03 | 56.08 | 44.7 | 36.5 | 57.6 | 62.5 | 80.4 | 37.5 | Activity (SK-MEL-5): 34.29%; inhibition of growth at 10 µM [16]: 9.65%; inhibition of growth at 10 µM [17]: 32.5%; inhibition of growth at 10 µM [18]: 23.3%; inhibition of growth at 10 µM [19]: 61.6%; inhibition of growth at 10 µM [20]: 31%; inhibition of growth at 10 µM (ACHN): 21.5%; inhibition of growth at 10 µM (SN12C): 21.5%; Activity (K562): 48.3%
2 | C=C1CC[C@@H]2[C@](C)(COC(C)=O)[C@H](OC(C)=O)CC[C@@]2(C)[C@@H]1CC(NCCCCCCCC)C1=CCOC1=O (mixture of isomers) | 44.59 | 70.76 | 98.01 | 91.44 | 66.95 | 81 | 55.53 | 84.15 | 47.66 | 52.34 | 93.23 | 87.68 | 85.68 | 56.13 | 33.69 | 52.7 | 63.5 | 64 | 63 | 29.2 | Activity (SK-MEL-5): 50.57%; inhibition of growth at 10 µM [16]: 8.56%; inhibition of growth at 10 µM [17]: 27.6%; inhibition of growth at 10 µM [18]: 32.2%; inhibition of growth at 10 µM [19]: 38.9%; inhibition of growth at 10 µM [20]: 51%; inhibition of growth at 10 µM (ACHN): 14%; inhibition of growth at 10 µM (SN12C): 26.9%; Activity (K562): 34.66%
3 | C=C1CC[C@@H]2[C@](C)(COC(C)=O)[C@H](OC(C)=O)CC[C@@]2(C)[C@@H]1CC(NCc1cccc(Cl)c1)C1=CCOC1=O (mixture of isomers) | 66.34 | 52.71 | 75.37 | 84.55 | 37.72 | 85.92 | 30.91 | 76.11 | 41.2 | 50.4 | 99.69 | 60.33 | 50.51 | 46.94 | 30.08 | 57.7 | 78.1 | 72.8 | 88.5 | 47.3 | inhibition of growth at 10 µM [16]: 15.4%; inhibition of growth at 10 µM [17]: 61.7%; inhibition of growth at 10 µM [18]: 46.7%; inhibition of growth at 10 µM [19]: 74.8%; inhibition of growth at 10 µM [20]: 52.6%; inhibition of growth at 10 µM (ACHN): 58.4%; inhibition of growth at 10 µM (SN12C): 37.9%; Activity (K562): 18.48%
4 | C=C1CC[C@@H]2[C@](C)(COC(C)=O)[C@H](OC(C)=O)CC[C@@]2(C)[C@@H]1CC(NCc1ccccc1)C1=CCOC1=O (mixture of isomers) | 41.66 | 57.36 | 77.01 | 93.69 | 40.99 | 63.88 | 47.58 | 77.12 | 38.81 | 35.88 | 101.59 | 23.47 | 74.33 | 29.11 | 10.07 | 79.1 | 3.86 | 96.8 | 79.1 | 42.6 | inhibition of growth at 10 µM [16]: 6.31%; inhibition of growth at 10 µM [17]: 52.7%; inhibition of growth at 10 µM [18]: 37.9%; inhibition of growth at 10 µM [19]: 67.2%; inhibition of growth at 10 µM [20]: 68.2%; inhibition of growth at 10 µM (ACHN): 53.6%; inhibition of growth at 10 µM (SN12C): 41.8%; Activity (K562): 24.65%
5 | C=C1CC[C@@H]2[C@](C)(COC(C)=O)[C@H](OC(C)=O)CC[C@@]2(C)[C@@H]1CC(NCCCC)C1=CCOC1=O (mixture of isomers) | 53.32 | 89.71 | 96.22 | 92.1 | 96.89 | 94.28 | 86.76 | 97.57 | 72.38 | 85.7 | 95.04 | 87.27 | 104.19 | 84 | 51.19 | 19.3 | 44.5 | 39.5 | 51.5 | 10.3 | Activity (SK-MEL-5): 76.02%; inhibition of growth at 10 µM [16]: 7.9%; inhibition of growth at 10 µM [17]: 4.99%; inhibition of growth at 10 µM [18]: 23%; inhibition of growth at 10 µM [19]: 14.8%; inhibition of growth at 10 µM [20]: 8.88%; inhibition of growth at 10 µM (ACHN): 0.58%; inhibition of growth at 10 µM (SN12C): 10.2%; Activity (K562): 69.53%
